The values that follow come from US11661426B2, “Imidazole-containing inhibitors of ALK2 kinase” (BioCryst Pharmaceuticals, Inc., priority 2017, dated 2023).

The target of the test is ALK2 (Homo sapiens (Human), UniProt Q04771). In words: ALK2 inhibition, LanthaScreen Eu Kinase Binding Assay (ThermoFisher Scientific / Life Technologies). Conditions: read-out: Measured Ki (IC50) Value for Compounds: IC50. The procedure: Biochemical assays to measure the inhibitory effects of the compounds were performed by ThermoFisher Scientific (Life Technologies). ALK2 inhibition was tested using LanthaScreen™ Eu Kinase Binding Assay screening protocol.
Chain of ALK2 (Q04771 21-509): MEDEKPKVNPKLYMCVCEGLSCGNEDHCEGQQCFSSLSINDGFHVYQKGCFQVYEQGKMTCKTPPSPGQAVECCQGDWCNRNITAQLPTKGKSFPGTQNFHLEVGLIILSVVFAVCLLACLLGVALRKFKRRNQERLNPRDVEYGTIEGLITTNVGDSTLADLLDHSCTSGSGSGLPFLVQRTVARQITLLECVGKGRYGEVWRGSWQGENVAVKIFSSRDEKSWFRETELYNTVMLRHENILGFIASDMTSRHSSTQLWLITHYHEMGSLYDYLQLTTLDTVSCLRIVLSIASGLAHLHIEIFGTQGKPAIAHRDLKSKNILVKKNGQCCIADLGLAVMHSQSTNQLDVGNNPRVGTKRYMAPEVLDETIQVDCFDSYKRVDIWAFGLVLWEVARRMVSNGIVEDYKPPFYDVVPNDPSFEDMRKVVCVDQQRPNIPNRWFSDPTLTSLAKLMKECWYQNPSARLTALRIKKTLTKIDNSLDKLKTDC
(TR-FRET usually uses a lanthanide donor and a delayed reading to cut background.)
One may read the IC50 as the midpoint of a concentration-inhibition curve. With `COc1cc(-n2cnc(Nc3nc(N4CCC[C@H]4CO)c4ccc(C(=O)N5CCCCC5)n4n3)c2)cc(OC)c1OC` [Compound 259d, (S)-(4-(2-(hydroxymethyl)pyrrolidin-1-yl)-2-((1-(3,4,5-trimethoxyphenyl)-1H-imidazol-4-yl)amino)pyrrolo[2,1-f][1,2,4]triazin-7-yl)(piperidin-1-yl)methanone], the IC50 is below 100 nM.
`COc1cc(-n2cnc(Nc3nc(N4CCC(F)(F)C4)nc4ccoc34)c2)cc(OC)c1OC` [Compound 260a, 2-(3,3-difluoropyrrolidin-1-yl)-N-(1-(3,4,5-trimethoxyphenyl)-1H-imidazol-4-yl)furo[3,2-d]pyrimidin-4-amine]: the concentration for half-maximal inhibition (IC50) is below 100 nM.
Regarding `COc1cc(-n2cnc(Nc3nc(N4CC[C@H](N(C)C)C4)nc4ccoc34)c2)cc(OC)c1OC` [Compound 261a, (S)-2-(3-(dimethylamino)pyrrolidin-1-yl)-N-(1-(3,4,5-trimethoxyphenyl)-1H-imidazol-4-yl)furo[3,2-d]pyrimidin-4-amine], the IC50 is below 100 nM.
Consider `OC[C@@H]1CCCN1c1nc(Nc2cn(-c3cccc(OC(F)(F)F)c3)cn2)nn2cccc12` [Compound 262d, (S)-(1-(2-((1-(3-(trifluoromethoxy)phenyl)-1H-imidazol-4-yl)amino)pyrrolo[2,1-f][1,2,4]triazin-4-yl)pyrrolidin-2-yl)methanol], for which the 50% inhibitory concentration (IC50) was above 1000 nM.
With `Cc1cc(OC(F)(F)F)cc(-n2cnc(Nc3nc(N4CCC[C@H]4CO)c4cccn4n3)c2)c1` [Compound 263d, (S)-(1-(2-((1-(3-methyl-5-(trifluoromethoxy)phenyl)-1H-imidazol-4-yl)amino)pyrrolo[2,1-f][1,2,4]triazin-4-yl)pyrrolidin-2-yl)methanol], the IC50 is above 1000 nM.
Consider `COc1cc(-n2cnc(Nc3nc4c(c(N5CCC[C@@H]5CO)n3)CCCC4)c2)cc(OC)c1OC` [Compound 264b, (R)-(1-(2-((1-(3,4,5-trimethoxyphenyl)-1H-imidazol-4-yl)amino)-5,6,7,8-tetrahydroquinazolin-4-yl)pyrrolidin-2-yl)methanol], for which the IC50 is below 100 nM.
As to `COc1cc(-n2cnc(Nc3nc(N(C)C4CCN(C)CC4)nc4ccoc34)c2)cc(OC)c1OC` [Compound 265a, N2-methyl-N2-(1-methylpiperidin-4-yl)-N4-(1-(3,4,5-trimethoxyphenyl)-1H-imidazol-4-yl)furo[3,2-d]pyrimidine-2,4-diamine], the IC50 was below 100 nM.
For `COc1cc(-n2cnc(Nc3nc(N4CCC[C@H]4C(N)=O)nc4cc(F)ccc34)c2)cc(OC)c1OC` [Compound 266c, (S)-1-(7-fluoro-4-((1-(3,4,5-trimethoxyphenyl)-1H-imidazol-4-yl)amino)quinazolin-2-yl)pyrrolidine-2-carboxamide], the IC50 is below 100 nM.
`COc1c(O)cc(-n2cnc(Nc3nc(N4CCC[C@H]4CO)nn4cccc34)c2)cc1C(=O)NCC1CC1` [Compound 267i, (S)—N-(cyclopropylmethyl)-3-hydroxy-5-(4-((2-(2-(hydroxymethyl)pyrrolidin-1-yl)pyrrolo[2,1-f][1,2,4]triazin-4-yl)amino)-1H-imidazol-1-yl)-2-methoxybenzamide]: the IC50 was 100 to 1000 nM.
Take `COc1cc(-n2cnc(Nc3nc(N4CCC[C@H]4CO)nn4cccc34)c2)cc(C(N)=O)c1O` [Compound 268b, (S)-2-hydroxy-5-(4-((2-(2-(hydroxymethyl)pyrrolidin-1-yl)pyrrolo[2,1-f][1,2,4]triazin-4-yl)amino)-1H-imidazol-1-yl)-3-methoxybenzamide]: the IC50 was below 100 nM.
Take `COc1cc(-n2cnc(Nc3nc(N4CCC[C@H]4CO)nc4cc(F)ccc34)c2)cc(OC)c1OC` [Compound 269a, (S)-(1-(7-fluoro-4-((1-(3,4,5-trimethoxyphenyl)-1H-imidazol-4-yl)amino)quinazolin-2-yl)pyrrolidin-2-yl)methanol]: the IC50 is below 100 nM.
To `COc1cc(-n2cnc(Nc3nc(N4CCC[C@H]4CO)nc4cc(N5CCC[C@H]5CO)ccc34)c2)cc(OC)c1OC` [Compound 269b, ((2S,2′S)-1,1′-(4-((1-(3,4,5-trimethoxyphenyl)-1H-imidazol-4-yl)amino)quinazoline-2,7-diyl)bis(pyrrolidine-2,1-diyl))dimethanol] belongs below 100 nM.
The value for `COc1cc(-n2cnc(Nc3nc(N4C(=O)CC[C@H]4CO)nc4ccoc34)c2)cc(OC)c1OC` [Compound 270a, (S)-5-(hydroxymethyl)-1-(4-((1-(3,4,5-trimethoxyphenyl)-1H-imidazol-4-yl)amino)furo[3,2-d]pyrimidin-2-yl)pyrrolidin-2-one] was below 100 nM; that for `COc1cc(-n2cnc(Nc3nc4c(c(N5CCC[C@H]5CO)n3)CCC4)c2)cc(OC)c1OC` [Compound 271c, (S)-(1-(2-((1-(3,4,5-trimethoxyphenyl)-1H-imidazol-4-yl)amino)-6,7-dihydro-5H-cyclopenta[d]pyrimidin-4-yl)pyrrolidin-2-yl)methanol] was below 100 nM.
Regarding `COc1cc(-n2cnc(Nc3nc4c(c(N5CCC[C@@H]5CO)n3)CCC4)c2)cc(OC)c1OC` [Compound 272b, (R)-(1-(2-((1-(3,4,5-trimethoxyphenyl)-1H-imidazol-4-yl)amino)-6,7-dihydro-5H-cyclopenta[d]pyrimidin-4-yl)pyrrolidin-2-yl)methanol], the 50% inhibitory concentration (IC50) is below 100 nM.
Turning to `COc1cc(-n2cnc(Nc3nc4c(c(N5CCC[C@H]5CO)n3)CS(=O)(=O)CC4)c2)cc(OC)c1OC` [Compound 273c, (S)-4-(2-(hydroxymethyl)pyrrolidin-1-yl)-2-((1-(3,4,5-trimethoxyphenyl)-1H-imidazol-4-yl)amino)-7,8-dihydro-5H-thiopyrano[4,3-d]pyrimidine 6,6-dioxide], the IC50 was below 100 nM.
To `COc1cc(-n2cnc(Nc3nc(N4CCC[C@H]4CO)nc4c3CN(C(C)C)C4=O)c2)cc(OC)c1OC` [Compound 274c, (S)-2-(2-(hydroxymethyl)pyrrolidin-1-yl)-6-isopropyl-4-((1-(3,4,5-trimethoxyphenyl)-1H-imidazol-4-yl)amino)-5H-pyrrolo[3,4-d]pyrimidin-7(6H)-one] belongs below 100 nM; to `COc1cc(-n2cnc(Nc3nc(N4CCC[C@@H]4CO)nc4c3CN(C(C)C)C4=O)c2)cc(OC)c1OC` [Compound 275a, (R)-2-(2-(hydroxymethyl)pyrrolidin-1-yl)-6-isopropyl-4-((1-(3,4,5-trimethoxyphenyl)-1H-imidazol-4-yl)amino)-5H-pyrrolo[3,4-d]pyrimidin-7(6H)-one], below 100 nM.
Regarding `COc1cc(-n2cnc(Nc3nc(N4CCC[C@H]4CO)c4ccc(F)cc4n3)c2)cc(OC)c1OC` [Compound 276b, (S)-(1-(7-fluoro-2-((1-(3,4,5-trimethoxyphenyl)-1H-imidazol-4-yl)amino)quinazolin-4-yl)pyrrolidin-2-yl)methanol], the IC50 was below 100 nM.
For the compound `COc1cc(-n2cnc(Nc3nc(N4CCC[C@@H]4C(N)=O)nc4cc(OC(C)C)ccc34)c2)cc(OC)c1OC` [Compound 277a, (R)-1-(7-isopropoxy-4-((1-(3,4,5-trimethoxyphenyl)-1H-imidazol-4-yl)amino)quinazolin-2-yl)pyrrolidine-2-carboxamide], the IC50 was below 100 nM.
For the compound `COc1cc(-n2cnc(Nc3nc(N4CCC[C@@H]4CO)c4ccc(OC(C)C)cc4n3)c2)cc(OC)c1OC` [Compound 278b, (R)-(1-(7-isopropoxy-2-((1-(3,4,5-trimethoxyphenyl)-1H-imidazol-4-yl)amino)quinazolin-4-yl)pyrrolidin-2-yl)methanol], the concentration for half-maximal inhibition (IC50) was below 100 nM.
As to `COc1cc(-n2cnc(Nc3nc4c(c(N5CCC[C@H]5CO)n3)COC4)c2)cc(OC)c1OC` [Compound 279c, (S)-(1-(2-((1-(3,4,5-trimethoxyphenyl)-1H-imidazol-4-yl)amino)-5,7-dihydrofuro[3,4-d]pyrimidin-4-yl)pyrrolidin-2-yl)methanol], the IC50 is below 100 nM.
`COc1cc(-n2cnc(Nc3nc4c(c(N5CCC[C@@H]5CO)n3)COC4)c2)cc(OC)c1OC` [Compound 280b, (R)-(1-(2-((1-(3,4,5-trimethoxyphenyl)-1H-imidazol-4-yl)amino)-5,7-dihydrofuro[3,4-d]pyrimidin-4-yl)pyrrolidin-2-yl)methanol]: the IC50 was below 100 nM.
As to `COc1cc(-n2cnc(Nc3nc(N4CCC[C@H]4CO)nc4c3COC4)c2)cc(OC)c1OC` [Compound 281b, (S)-(1-(4-((1-(3,4,5-trimethoxyphenyl)-1H-imidazol-4-yl)amino)-5,7-dihydrofuro[3,4-d]pyrimidin-2-yl)pyrrolidin-2-yl)methanol], the IC50 is below 100 nM.
To `COc1cc(-n2cnc(Nc3nc(N4CCC[C@@H]4CO)nc4c3COC4)c2)cc(OC)c1OC` [Compound 282a, (R)-(1-(4-((1-(3,4,5-trimethoxyphenyl)-1H-imidazol-4-yl)amino)-5,7-dihydrofuro[3,4-d]pyrimidin-2-yl)pyrrolidin-2-yl)methanol] belongs below 100 nM; to `COc1cc(-n2cnc(Nc3nc(N4CC[C@@H](CO)C4)c4cccn4n3)c2)cc(OC)c1OC` [Compound 283b, (R)-(1-(2-(1-(3,4,5-trimethoxyphenyl)-1H-imidazol-4-ylamino)pyrrolo[1,2-f][1,2,4]triazin-4-yl)pyrrolidin-3-yl)methanol], below 100 nM.
As to `COc1cc(-n2cnc(Nc3nc(N4CCC[C@H]4CO)nc4cc(C(F)(F)F)ccc34)c2)cc(OC)c1OC` [Compound 284c, (S)-(1-(7-(trifluoromethyl)-4-((1-(3,4,5-trimethoxyphenyl)-1H-imidazol-4-yl)amino)quinazolin-2-yl)pyrrolidin-2-yl)methanol], the 50% inhibitory concentration (IC50) was below 100 nM.
On to `COc1cc(-n2cnc(Nc3nc(N4CCC[C@H]4C(N)=O)nc4cc(C(F)(F)F)ccc34)c2)cc(OC)c1OC` [Compound 285a, (S)-1-(7-(trifluoromethyl)-4-((1-(3,4,5-trimethoxyphenyl)-1H-imidazol-4-yl)amino)quinazolin-2-yl)pyrrolidine-2-carboxamide], for which the IC50 is below 100 nM.
With `COc1cc(-n2cnc(Nc3nc(N4CCC[C@H]4CO)c4ccc(C(F)(F)F)cc4n3)c2)cc(OC)c1OC` [Compound 286b, (S)-(1-(7-(trifluoromethyl)-2-((1-(3,4,5-trimethoxyphenyl)-1H-imidazol-4-yl)amino)quinazolin-4-yl)pyrrolidin-2-yl)methanol], the IC50 is below 100 nM.
